Test results reported in patent US20200009134A1, “Method and Compound for Modifying Circadian Clock” (Gritscience Biopharmaceuticals Co., Ltd., priority 2017, published 2020).

How the values were obtained:
[1] = tested on: U2OS cells expressing Per2-luciferase; experiment: Circadian rhythm of U2OS cells expressing Per2-luciferase; assay type: cell-based, human; conditions: for Phenotype: phase of the circadian rhythm / Phenotype: Period shortening: Cay10576 15 μM, dinaciclib 10 nM, Cdk/Crk inhibitor 10 nM, n=4 (FIG. 1b, 1c); for Phenotype: Period lengthening: IKBKB inhibitors, all at 10 μM, n=5 (FIG. 1a)
Method: (a) IKBKB inhibitors. The concentration of all the inhibitors was 10 μM, n=5. (b) IKBKE inhibitors.
The above experiments were conducted with the drug added to the culture media from the beginning.

SCN explants = experiment: Circadian rhythm of SCN explants from Per2::Luciferase mice; assay type: cell-based, mouse; conditions: applied at CT12; p<0.01, n=8
Description: U2OS cells are just cultured cells, while the SCN is the master clock in mammals. We dissected the SCN from mice expressing the Per2::Luciferase gene which faithfully reported the circadian rhythm (Yoo et al., 2004).

[2] = tested on: U2OS cells expressing Per2-luciferase; experiment: Circadian rhythm of U2OS cells expressing Per2-luciferase; assay type: cell-based, human
[3] = applied from the beginning of the assay

With `COc1cc2ncn(-c3cc(OCc4ccccc4S(C)(=O)=O)c(C#N)s3)c2cc1OC` [Cay10576] the “Phenotype: phase of the circadian rhythm” value [1] was “delay”, the “Phenotype: Period shortening” value [1, 3] was “Period shortening, 0.3 ± 0.060 h; phase” and the “Phenotype: Period shortening” value ([1]; applied from the beginning of the assay, listed as Cayl0576) was 0.3 h.

`CC(C)c1[nH]n(-c2c(Cl)cccc2Cl)c2nc(Cc3ccc(OCCO)cc3)nc(=O)c1-2` [Cdk/crk inhibitor, 1-(2,6-dichlorophenyl)-6-[[4-(2-hydroxyethoxy)phenyl]methyl]-3-propan-2-yl-2H-pyrazolo[3,4-d]pyrimidin-4-one] was tested, and the “Phenotype: phase of the circadian rhythm” value [1] was “delay” and the “Phenotype: Period shortening” value [1, 3] was “Period shortening, 0.5 ± 0.074 h; phase”.

`CCc1cnn2c(NCc3ccc[n+]([O-])c3)cc(N3CCCC[C@H]3CCO)nc12` [Dinaciclib] was tested, and the “Phase advance of SCN explants” value (SCN explants) was 2.488 ± 0.7391 h, the Phase delay ([2]; applied at CT6, p<0.001, n=5) was 7.543 ± 0.6185 h and the Phase delay ([2]; applied at CT12, p<0.0001, n=5) was 5.808 ± 0.5455 h. The Phase delay ([2]; applied at CTO, p<0.01, n=5) was 4.092 ± 0.9062 h, the Phase advance ([2]; introduced at CT18) was 1.7 ± 0.81 h and the “Phenotype: Period shortening” value [1, 3] was “Period shortening, 0.6 ± 0.050 h; phase”. The “Phenotype: Period shortening” value ([1]; applied from the beginning of the assay, listed as dinaciclib) was 0.6 h and the Increase of amplitude [1, 3] was 1.78 fold.

With `NC(=O)Nc1sc(-c2ccc(F)cc2)cc1C(N)=O` [Ikk2 inhibitor iv, 2-(carbamoylamino)-5-(4-fluorophenyl)thiophene-3-carboxamide] the “Phenotype: Period lengthening” value [1] was “Period lengthening, 3.16 ± 0.167 h”.

`O=C(Nc1cc(C(F)(F)F)cc(C(F)(F)F)c1)c1cc(Cl)ccc1O` [Ikk2 inhibitor v, N-[3,5-bis(trifluoromethyl)phenyl]-5-chloro-2-hydroxybenzamide] was tested, and the “Phenotype: Period lengthening” value [1] was “Period lengthening, 1.84 ± 0.192 h”.

For `NC(=O)Nc1sc(-c2ccccc2)cc1C(N)=O` [Ikk2 inhibitor vi, 2-[(aminocarbonyl)amino]-5-phenyl-3-thiophenecarboxamide], the “Phenotype: Period lengthening” value [1] was “Period lengthening, 1.25 ± 0.149 h”.
